From US8084262B2, “Biomarker for farnesyl pathway” (Hoffmann-La Roche Inc., priority 2006, dated 2011)
Where two headings read alike, the source gives them in different places.

Tests used:
kidney and liver [1] = settings: rat, in vivo
N-acetyl-felinine [2] = experiment: Determination of N-acetyl-felinine in rat urine by LC-MS; format: in vivo, Sprague Dawley rats; settings: for LC-MS signal for expected mass of N-acetyl felinine (m/z 248 in neg. mode): rat urine, 96 h after dosing
Method: (§1) Urine samples were collected in metabolism cages at 0 to 4° C. (automatically refrigerated by a Tecniplast sampling/cooling unit) at the intervals given in the sampling schedule below into sample tubes containing 1 ml of an aqueous Cs-azide (1%) solution. Before aliquoting, urine volumes were determined.
(§2) Immediately after reaching the end of the sampling period, the volume was determined and the samples were centrifuged at 3000 u/min [500 g] for 10 min.
LC-MS analysis of urine was performed using an Agilent 1100 HPLC system coupled to a Bruker Esquire 3000+ mass spectrometer equipped with an electrospray interface. Urine samples were diluted 4-fold with distilled water and 2 μl injections were made from a well plate maintained at 4° C. into a 150 mm×3.9 mm Waters Atlantis dC18 3 μm HPLC column maintained in an oven at 30° C. The column was eluted at a flow rate of 1 ml/min; mobile phase A consisted of 20 mM ammonium acetate, and mobile phase B of acetonitrile. […] The mass spectrometer was operated in negative mode with a dry gas flow of 81/min, nebulizer pressure of 27 psi and dry temperature of 330° C. The instrument was set to acquire over the mass range m/z 50-800. N-acetyl-felinine was found under this conditions at a retention time of 9.6 min with the expected m/z 248 (see FIG. 8) in samples of rats dosed with Zoledronate.

N-acetyl-felinine [3] = experiment: Determination of N-acetyl-felinine in rat urine by NMR; format: in vivo, Sprague Dawley rats; settings: for N-acetyl-felinine levels in urine: in a given time interval after stimulation
Method: as §1, §2
N-acetyl-felinine was identified in urine samples on basis of 1D and 2D NMR spectra. Spectra were acquired at 600.13 MHz on a Bruker AV 600 spectrometer and at 500.13 MHz on Bruker DRX-500 spectrometer. Urine samples were prepared and measured and the data evaluated as described elsewhere (Keun, H. C.; Ebbels, T. M. D.; Antti, H.; Bollard, M. E.; Beckonert, O.; Schlotterbeck, G.; Senn, H,; Niederhauser, U.; Holmes, E.; Lindon, J. C.; Nicholson, J. K. Chem. Res. Toxicol. 2002, 15, 1380-1386).
Aliquots of 400 microliter urine are transferred into well plates. For adjustment of urinary pH 200 microliter of buffer [ca. 0.2M Na2HPO4/NaH2PO4, ca. 1 mM TSP (3-trimethylsilyl-D4-propionic acid), ca. 3 mM sodium azide] is added to each well. Prepared well plates are centrifuged at ca. 3,000 rpm at 4° C. for 5-10 min to remove insoluble material.
^1H NMR spectra for Metabonomic analysis (e.g. at 500 Mhz, 64 k data points, 12019.2 Hz spectral width) were measured at 300K. The water resonance were suppressed by use of standard pulse-sequences (e.g noesyprld, irradiation for 2 s relaxation delay and during 100 ms mixing time). For each sample as many transients were added as is needed to provide spectra high enough in signal to noise. Fourier transformation was done by use of a matched window function (e.g. lb=1) followed by (automatic or manual) phasing and base-line correction. Referencing was done with respect to TSP added (defined as 0.0 ppm). Acquisition and processing of spectra was performed with Bruker XWinNMR 3.5 software.
Each spectrum recorded was reduced in size for simplified statistical analysis (e.g. For NMR spectra recorded according to the standard protocol 245 variables will be calculated by equidistant integration between 0.2-10.0 ppm). Regions containing misleading information (e.g. solvents, urea cover a region for 4.5 up to 6.0 ppm) were excluded or merged (e.g. the region from 2.66 to 2.74 ppm serves as a value indicative for citrate) prior to analysis. To take account variations in urine concentration, all data-reduced spectra were normalised to a constant integrated intensity of 100 units.
Thereby widespread PCA (principal component analysis) is used for identifying significant patterns of signals and assigning these patterns to samples and groups of samples. PLS (projection to latent structures, partial least squares) is also used for finding significant patterns of signals, whereby in contrast to PCA the information of dose-groups is used for boosting the identification of significant changes. The assignment is performed with the help of an internal data base of metabolites, with the help of pathway mapping procedures (KEGG database) and with the help of a spectroscopic structure elucidation for unknown metabolites when feasible.

kidney and liver [4] = experiment: Histopathology of treated animals (kidney and liver toxicity)

Row | Structure (SMILES) | kidney and liver toxicity in histopathology (kidney and liver [1]) | LC-MS signal for expected mass of N-acetyl felinine (m/z 248 in neg. mode) (N-acetyl-felinine [2]; 3 mg/kg, FIG. 9) | N-acetyl-felinine levels in urine (N-acetyl-felinine [3]) | Time course of bin 1.32 ppm (Methyl signals of N-Acetyl felinine) relative to creatinine (N-acetyl-felinine [3]; rat urine NMR, FIG. 3) | kidney and liver toxicity in histopathology (kidney and liver [4]) | N-acetyl-felinine in urine by LC-MS (N-acetyl-felinine [2]; negative mode, urine samples of dosed rats) | LC-MS signal for expected mass of N-acetyl felinine (m/z 248 in neg. mode) (N-acetyl-felinine [2]; 6 mg/kg, FIG. 8) | N-acetyl-felinine in urine NMR spectra (N-acetyl-felinine [3]; 1D NMR, signal at 1.32 ppm, FIG. 5) | NMR signal at 1.32 ppm in urine (N-acetyl-felinine [3]; 96 h after dosing, FIG. 5)
1 | CCCCCN(C)CCC(O)(P(=O)(O)O)P(=O)(O)O [Ibandronate] | not so | No signal found | undetectable | no increase |  |  |  |  | 
2 | O=P(O)(O)C(O)(Cn1ccnc1)P(=O)(O)O [Zoledronate] |  |  | high levels |  | kidney and liver toxicity was observed | found | Strong signal found | found | New signal at 1.32 ppm visible
